Here are results for ten compounds from patent US10750742B2, “Pesticidally active pyrazole derivatives” (SYNGENTA PARTICIPATIONS AG, priority 2015, dated 2020).

Like-named read-outs stand apart in the source and are kept apart here.

For data set [1], the system named is Spodoptera littoralis. The data set can be described thus: Comparison: insecticidal activity against Spodoptera littoralis, larvicide L-3, feeding/contact, soybean plants. Type of data set: in vivo. The conditions noted are these: 120 h. As to the method: (§1) Biological Comparison Data:
(§2) Compound A and B are disclosed in WO2014/122083 as example (Ic-1) (p. 76) and (lc-2) (p. 82, Table 3). The activities of compounds A and B to treat different pests are compared with the activities of compound 4, 6, 15 and 35 according to the present invention. The tests are carried out at different concentrations (ppm).
a) Insecticidal Activity Against Spodoptera littoralis (Egyptian Cotton Leaf Worm, Larvicide L-3, Feeding/Contact)
Soybean plants were sprayed with diluted test solutions in an application chamber. The plants (2 replicates) were infested with 10 L3 larvae 1 day after treatment. Samples were checked 5 days after infestation for mortality, feeding behavior, and growth regulation.

The subject of data set [2] is Thrips tabaci. Description: Comparison: insecticidal activity against Thrips tabaci, sunflower leaf discs. Format: in vivo. The conditions noted are these: 6 days after infestation. As to the method:
as §1, §2
b) Insecticidal Activity Against Thrips tabaci (Onion Thrips):
(§3) Sunflower leaf discs were placed on agar in 24-well microtiter plates and sprayed with aqueous test solutions prepared from 10′000 ppm DMSO stock solutions. After drying the leaf discs were infested with a thrips population of mixed ages. The samples were assessed for mortality 6 days after infestation.

Data set [3] deals with Myzus persicae. The data set can be described thus: Myzus persicae (green peach aphid), sunflower leaf disc spray test. Format: in vivo. The conditions noted are these: foliar, 144 h.
Data set [4] relates to Thrips tabaci. The data set can be described thus: Thrips tabaci (onion thrips), sunflower leaf disc test. Format: in vivo. The conditions noted are these: foliar, 144 h, read-out: control (mortality). As to the method: Thrips tabaci (Onion Thrips):
as §3

The test system of another data set is Euschistus heros. Description: Euschistus heros (neotropical brown stink bug), soybean leaf test. Type of data set: in vivo. The conditions noted are these: 120 h, read-out: effect in at least one of the two categories (mortality or growth inhibition). As for the experimental part: Euschistus heros (Neotropical Brown Stink Bug):
Soybean leaves on agar in 24-well microtiter plates were sprayed with aqueous test solutions prepared from 10′000 ppm DMSO stock solutions. After drying the leaves were infested with N2 nymphs. The samples were assessed for mortality and growth inhibition in comparison to untreated samples 5 days after infestation.

Another data set relates to Tetranychus urticae. The data set can be described thus: Tetranychus urticae (two-spotted spider mite), bean leaf disc test. The conditions noted are these: foliar, 192 h, read-out: control (mortality on mixed population, mobile stages). Type of data set: in vivo. As for the experimental part:
Tetranychus urticae (Two-Spotted Spider Mite):
Bean leaf discs on agar in 24-well microtiter plates were sprayed with aqueous test solutions prepared from 10′000 ppm DMSO stock solutions. After drying the leaf discs were infested with a mite population of mixed ages. The samples were assessed for mortality on mixed population (mobile stages) 8 days after infestation.

Data set [5] has as its system Spodoptera littoralis. Description: Spodoptera littoralis (Egyptian cotton leaf worm), cotton leaf disc spray test. The conditions noted are these: foliar, 72 h, read-out: control (at least one of mortality, anti-feedant effect, growth inhibition). Format: in vivo. The method in brief:
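Five first-instar larvae per disc were placed on dried, sprayed cotton leaf discs held on agar. Test solutions were aqueous, made from 10′000 ppm DMSO stocks. At day 3, control was counted when mortality, feeding deterrence or growth inhibition exceeded the untreated discs.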

A further data set relates to Plutella xylostella. The data set can be described thus: Plutella xylostella (diamond back moth), artificial diet test. Format: in vivo. The conditions noted are these: 120 h, read-out: control (mortality and growth inhibition). As to the method:
Plutella xylostella (Diamond Back Moth):
24-well microtiter plates with artificial diet were treated with aqueous test solutions prepared from 10′000 ppm DMSO stock solutions by pipetting. After drying, the plates were infested with L2 larvae (10 to 15 per well). The samples were assessed for mortality and growth inhibition in comparison to untreated samples 5 days after infestation.

Another data set has as its system Diabrotica balteata. The data set can be described thus: Diabrotica balteata (corn root worm), maize sprout test. Format: in vivo. The conditions noted are these: 96 h, read-out: control (mortality and growth inhibition). As for the experimental part: Diabrotica balteata, (Corn Root Worm)
Maize sprouts, placed on an agar layer in 24-well microtiter plates were treated with aqueous test solutions prepared from 10′000 ppm DMSO stock solutions by spraying. After drying, the plates were infested with L2 larvae (6 to 10 per well). The samples were assessed for mortality and growth inhibition in comparison to untreated samples 4 days after infestation.

In data set [6] the test system is Myzus persicae. Description: Myzus persicae (green peach aphid), sucrose solution / Parafilm test. Type of data set: in vivo. The conditions noted are these: 120 h. The method in brief: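 Compound mixed into sucrose solution at 12.5 ppm under stretched Parafilm; aphid-infested pea seedlings set on the membrane and plate inverted so insects feed through it. Mortality assessed 5 days after infestation.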

As for `Cn1nc(OC(F)(F)C(F)C(F)(F)F)c(C(F)(F)F)c1-n1cc(-c2cccc(C(=O)NC3(C#N)CC3)c2F)cn1` (stereo not drawn), the melting point was in the range of 59 to 61 °C.
The same measure, in the same setting: the same measure for `CN1N=C(OC(F)(F)C(F)C(F)(F)F)C(C(F)(F)F)C1n1cc(-c2cc(F)c(Cl)c(C(=O)NC3CC3)c2)cn1` (stereo not drawn): 114 to 116 °C; for `CN1N=C(OC(F)(F)C(F)C(F)(F)F)C(C(F)(F)F)C1n1cc(-c2cc(F)c(Cl)c(C(=O)NC3(C#N)CC3)c2)cn1` (stereo not drawn): 82 to 84 °C; for `Cn1nc(OC(F)(F)C(F)C(F)(F)F)c(C(F)(F)F)c1-n1cc(-c2cc(C(=O)NC3CC3)c(Cl)cc2F)cn1` (stereo not drawn): 68 to 70 °C.
Still for that read-out and setting: the result for `Cn1nc(OC(F)(F)C(F)C(F)(F)F)c(C(F)(F)F)c1-n1cc(-c2cc(Cl)c(Cl)c(C(=O)NC3CC3)c2)cn1` (stereo not drawn) reads 67 to 70 °C; that for `Cn1nc(OC(F)(F)C(F)C(F)(F)F)c(C(F)(F)F)c1-n1cc(-c2cc(Cl)c(Cl)c(C(=O)NC3(C#N)CC3)c2)cn1` (stereo not drawn), 162 to 165 °C.
In the case of `Cn1nc(C(F)(F)C(F)(F)F)c(C(F)(F)F)c1-n1cc(-c2ccc(Cl)c(C(=O)NC3CC3)c2)cn1` [A, reference compound], in the data set with Spodoptera littoralis [1], the mortality at 0.2 ppm was 0%, the mortality at 0.8 ppm came to 15%, the mortality at 3 ppm was determined as 55% and the mortality at 12.5 ppm was 85%.
In the case of `Cn1nc(C(F)(F)C(F)(F)F)c(C(F)(F)F)c1-n1cc(-c2ccc(Cl)c(C(=O)NC3(C#N)CC3)c2)cn1` [B, reference compound], in the data set with Thrips tabaci [2] (12.5 ppm), the “Mortality (%)” value amounted to 100%. This compound came in with a mortality at 0.05 ppm in the data set on Thrips tabaci [2] (Thrips tabaci, foliar, 144 h, 0.05 ppm) of 0%. For the same compound, the mortality at 0.2 ppm with Thrips tabaci [2] (Thrips tabaci, foliar, 144 h, 0.2 ppm) worked out at 25%; in the data set with Spodoptera littoralis [1], 20%. In addition, the mortality at 0.781 ppm in the data set on Thrips tabaci [2] (Thrips tabaci, foliar, 144 h, 0.781 ppm) is 0%. The mortality at 0.8 ppm worked out at 90% with Thrips tabaci [2] (Thrips tabaci, foliar, 144 h, 0.8 ppm) and 75% in the data set on Spodoptera littoralis [1]. Besides, the mortality at 3 ppm was 100% in the data set on Thrips tabaci [2] (Thrips tabaci, foliar, 144 h, 3 ppm) and 100% in the data set with Spodoptera littoralis [1]. Moreover, the mortality at 3.12 ppm in the data set with Thrips tabaci [2] (Thrips tabaci, foliar, 144 h, 3.12 ppm) worked out at 25%. In addition, the mortality at 12.5 ppm in the data set with Thrips tabaci [2] (Thrips tabaci, foliar, 144 h, 12.5 ppm) came to 90%; in the data set with Spodoptera littoralis [1], 100%. The mortality at 50 ppm in the data set on Thrips tabaci [2] (Thrips tabaci, foliar, 144 h, 50 ppm) is 100%. Also, the mortality at 200 ppm with Thrips tabaci [2] (Thrips tabaci, foliar, 144 h, 200 ppm) stood at 100%.
Take `Cn1nc(OC(F)(F)C(F)C(F)(F)F)c(C(F)(F)F)c1-n1cc(-c2ccc(Cl)c(C(=O)NC3CC3)c2)cn1` (stereo not drawn) [compound 6]: the mortality at 200 ppm in the data set with Myzus persicae [3] (application rate 200 ppm, mixed ages, 6 DAT, read-out: mortality) is not below 80%; in the data set on Thrips tabaci [4] (application rate 200 ppm, mixed ages, 6 days after infestation), not below 80%; in the data set on Tetranychus urticae (application rate 200 ppm, 8 days after infestation), not below 80%; with Plutella xylostella (application rate 200 ppm, L2 larvae, 5 days after infestation) it was not below 80%; in the data set on Diabrotica balteata (application rate 200 ppm, L2 larvae, 4 days after infestation), not below 80%. Besides, the percent effect (mortality or growth inhibition) at 200 ppm in the data set with Euschistus heros (application rate 200 ppm, N2 nymphs, 5 days after infestation) is not below 80%. In addition, the percent control (mortality, anti-feedant effect or growth inhibition) at 200 ppm in the data set on Spodoptera littoralis [5] (application rate 200 ppm, L1 larvae, 3 days after infestation) is not below 80%. For the same compound, the mortality at 0.2 ppm in the data set with Spodoptera littoralis [1] (0.2 ppm, L3 larvae, 5 days after infestation, read-out: Mortality (%)) was 0%. Besides, the mortality at 0.8 ppm in the data set with Spodoptera littoralis [1] (0.8 ppm, L3 larvae, 5 days after infestation, read-out: Mortality (%)) amounted to 0%. The mortality at 3 ppm in the data set on Spodoptera littoralis [1] (3.0 ppm, L3 larvae, 5 days after infestation, read-out: Mortality (%)) was 100%. In addition, the mortality at 12.5 ppm in the data set with Spodoptera littoralis [1] (12.5 ppm, L3 larvae, 5 days after infestation, read-out: Mortality (%)) was determined as 100%. In addition, the mortality at 12 ppm with Myzus persicae [6] (test rate of 12 ppm, sucrose solution, 5 days after infestation, read-out: mortality) is not below 80%.
Take `Cn1nc(OC(F)(F)C(F)(F)C(F)(F)F)c(C(F)(F)F)c1-n1cc(-c2ccc(Cl)c(C(=O)NC3(C#N)CC3)c2)cn1` [compound 35]: the mortality at 200 ppm in the data set on Myzus persicae [3], with Thrips tabaci [4], in the data set on Tetranychus urticae, in the data set on Spodoptera littoralis [5], with Plutella xylostella and with Diabrotica balteata was not below 80% in each case. Moreover, in the data set with Euschistus heros, the percent control (mortality or growth inhibition) at 200 ppm was not below 80%. In the data set with Spodoptera littoralis [1], this compound displayed a mortality at 0.2 ppm of 0%. In addition, the mortality at 0.8 ppm with Spodoptera littoralis [1] is 100%. In the data set with Spodoptera littoralis [1], this compound yielded a mortality at 3 ppm of 100%. This compound gave a mortality at 12.5 ppm in the data set with Spodoptera littoralis [1] of 100%. Besides, the mortality at 12 ppm in the data set on Myzus persicae [6] is not below 80%.

One may read the melting point as the temperature, or range, at which the solid turns liquid. Usually mortality stands for the share of the test organisms that died.
